The NIST ThermoML archive (doi:10.1021/je400968v)

Assay: mn = molality of the nth substance listed, in mol/kg
Conditions: 101 kPa, Liquid; for viscosity: Capillary tube (Ostwald / Ubbelohde) method; for mass density: Vibrating tube method

Cc1ccc(N)cc1N [4-methyl-1,3-benzendiamine] + CCCO
Conditions	mass density, 293.15 K [kg/m3]	mass density, 303.15 K [kg/m3]	mass density, 313.15 K [kg/m3]	mass density, 323.15 K [kg/m3]	mass density, 333.15 K [kg/m3]	viscosity, 293.15 K [mPa·s]	viscosity, 303.15 K [mPa·s]	viscosity, 313.15 K [mPa·s]	viscosity, 323.15 K [mPa·s]	viscosity, 333.15 K [mPa·s]
m1 = 0.05	805.47	797.13	788.94	780.57	771.96	2.189	1.71	1.348	1.074	0.864
m1 = 0.1003	807.05	798.71	790.49	782.12	773.5	2.206	1.723	1.354	1.079	0.868
m1 = 0.15	808.57	800.22	792.01	783.62	774.99	2.225	1.735	1.365	1.086	0.875
m1 = 0.1997	810.04	801.7	793.49	785.09	776.45	2.247	1.748	1.372	1.091	0.878
m1 = 0.2499	811.49	803.17	794.96	786.55	777.91	2.267	1.759	1.382	1.099	0.883
m1 = 0.2999	812.87	804.6	796.4	787.99	779.34	2.294	1.774	1.389	1.106	0.889
m1 = 0.3496	814.24	805.98	797.83	789.4	780.74	2.315	1.79	1.401	1.112	0.893
m1 = 0.3994	815.57	807.34	799.22	790.77	782.12	2.338	1.806	1.412	1.117	0.899

Cc1ccc(N)cc1N [4-methyl-1,3-benzendiamine] + CCO
Conditions	mass density, 293.15 K [kg/m3]	mass density, 303.15 K [kg/m3]	mass density, 313.15 K [kg/m3]	mass density, 323.15 K [kg/m3]	mass density, 333.15 K [kg/m3]	viscosity, 293.15 K [mPa·s]	viscosity, 303.15 K [mPa·s]	viscosity, 313.15 K [mPa·s]	viscosity, 323.15 K [mPa·s]	viscosity, 333.15 K [mPa·s]
m1 = 0.0503	791.4	782.79	774	765.08	755.96	1.196	0.982	0.815	0.68	0.571
m1 = 0.0999	793.18	784.54	775.74	766.82	757.7	1.208	0.995	0.821	0.685	0.576
m1 = 0.1497	794.92	786.27	777.46	768.52	759.41	1.224	1.004	0.829	0.691	0.579
m1 = 0.1994	796.64	787.95	779.14	770.21	761.1	1.236	1.015	0.836	0.696	0.583
m1 = 0.2494	798.32	789.63	780.81	771.88	762.76	1.252	1.027	0.845	0.703	0.588
m1 = 0.2997	799.96	791.27	782.46	773.52	764.42	1.265	1.037	0.853	0.708	0.592
m1 = 0.3496	801.58	792.88	784.07	775.13	766.03	1.28	1.046	0.861	0.714	0.597
m1 = 0.3994	803.15	794.44	785.66	776.73	767.62	1.293	1.059	0.868	0.72	0.601
m1 = 0.4496	804.71	796.01	787.24	778.31	769.19	1.31	1.068	0.877	0.727	0.607
m1 = 0.4995	806.25	797.53	788.77	779.84	770.7	1.323	1.079	0.883	0.731	0.61
m1 = 0.5492	807.75	799.06	790.28	781.37	772.2	1.34	1.09	0.893	0.739	0.616
m1 = 0.5989	809.18	800.53	791.76	782.81	773.66	1.353	1.101	0.899	0.743	0.619
